Data on 8 compounds can be found in US20200032313A1 (SANYO CHEMICAL INDUSTRIES, LTD., priority 2017, published 2020).

Read-outs that look alike come from different tables or passages of the source.

Data set [1] relates to luciferase-expressing Saccharomyces cerevisiae. In kind it is cell-based. The note with it: S. cerevisiae, 8 hours. The protocol:
Transformation was performed using Saccharomyces cerevisiae distributed by Biotechnology Center, National Institute of Technology and Evaluation, whereby luciferase-expressing microorganisms were produced. A vector pYES2 (Thermo Fisher Scientific) was digested with HindIII and XbaI, and a synthetic (synthesized by Thermo Fisher Scientific on commission) a factor-luciferase gene having a HindIII cut site at one end and an XbaI cut site at the other end was inserted into the vector. The microorganisms were transformed by the a factor-luciferase gene-inserted pYES2 according to the method described in an instruction manual of pYES2. The luciferase-expressing microorganisms were inoculated using a platinum loop into YPD broth (yeast extract 1 wt % (Difco), bacto peptone 2 wt % (Difco), and glucose 2 wt %) and were shake-cultured at 200 rpm at 30° C. for 15 hours. Then, the thus-obtained broth was resuspended in 125-ml YPD broth (containing 100 mM potassium hydrogen phosphate buffer; pH: 6) to a final optical density (hereinafter sometimes abbreviated as “OD”) of 0.1 OD/ml.
Further, the resuspended broth was continued to be shake-cultured at 1100 rpm at 30° C. for about 17 hours until OD was 20 to 30. When OD was 20 to 30, the broth was centrifuged (1500 g, 10 min), and resuspended in 125-ml galactose-inducing broth (the YPD broth containing 100 mM potassium phosphate buffer and also containing 2% galactose instead of glucose; pH: 6), followed by culturing at 1100 rpm at 30° C. for 2 hours.
Subsequently, the surfactant described in Table 1 was added to the broth in the amount (wt %) described in Table 1, and the broth was cultured at 1100 rpm at 30° C. for 8 hours. Subsequently, the broth was sampled for measuring the optical density (optical density at the end of culturing) and for measuring the secretion efficiency. Then, these samples were subjected to centrifugation using a centrifuge to separate bacteria and the supernatant from the broth. Then, the supernatant and the bacteria were collected.
The broth obtained in each of Examples 1 to 22 and Comparative Examples 1 and 2 was 10 to 1000-fold diluted in a 0.2 M Tris-HCl buffer (pH 7.4), and 20 μl of the dilution was mixed with 60 μl of a luciferin solution described below to obtain a sample. The emission intensity of the sample was measured using a luminometer under the following conditions, and the measured emission intensity was substituted into the following formula. The resulting value was regarded as the luciferase activity of the secreted and produced useful substance.
Luminometer: “Glomax Navigator” available from Promega Corporation Luciferin solution: product of New England Biolabs Japan Inc. Measurement temperature: 25° C. Detector: emission detector Detection wavelength: 350 to 700 nm
(Luciferase activity of secreted and produced useful substance)=(Emission intensity)×dilution factor/(optical density at the end of culturing)
The bacteria obtained in each of Examples 1 to 22 and Comparative Examples 1 and 2 were mixed with a 0.2 M Tris-HCl buffer (pH 7.4) in an amount of 200 μl that is equal to the amount of the removed supernatant, followed by centrifugation, whereby the bacteria were washed. The washed bacteria were resuspended in a 0.2 M Tris-HCl buffer (pH 7.4) in an amount of 200 μl that is equal to the amount of the washed supernatant, and 10 to 1000-fold diluted in a 0.2 M Tris-HCl buffer (pH 7.4). The resulting dilution was used as a sample for measuring the luciferase activity on the bacterial surface.
Then, 20 μl of the sample for measuring the luciferase activity on the bacterial surface was mixed with 60 μl of the luciferin solution to obtain a sample. The emission intensity of the sample was measured under the same conditions as for “Measurement of luciferase activity of secreted and produced useful substance”, and the measured emission intensity was substituted into the following formula. […]

A short description of data set [2]: pKa of the ionizable group of the surfactant in water. The note with it: two values where two ionizable groups.
Experimental: (§1) The pKa of the ionizable group in water is a value determined at 25° C.
A further data set is described as follows: physchem. Particulars: pKa of the ionizable group in water at 25° C., two values where two ionizable groups.
Where [3] appears, read: surfactant 0.03 wt % of broth, Examples 2, 5-11.

Experimental for physchem: as §1

Take `CCCCCCCCCCCCNCCC(=O)O`: the “Secretion efficiency (%)” value in data set [1] (surfactant 0.003 wt % of broth, Example 1) turned out to be 56%; in data set [1] (setting [3]), 61%; in data set [1] (surfactant 0.3 wt % of broth, Example 3), 65%; in data set [1] (surfactant 3 wt % of broth, Example 4), 75%. On to `CCCCCCCCCCCC[N+](C)(C)CCCS(=O)(=O)O.[OH-]` [Surfactant (A3-3), dodecyldimethyl(3-sulfopropyl)ammonium hydroxide], for which, in data set [1] (setting [3]), the “Secretion efficiency (%)” value was 61%. In the case of “sodium polyoxyethylene (average 2.5 mol adduct) lauryl ether sulfate [Surfactant (A1-1)]”, in data set [1] (setting [3]), the “Secretion efficiency (%)” value came out at 66%. Also, in data set [2], the “pKa of the ionizable group in water at 25° C.” value is listed as 2.0. In the data set “physchem”, `CCCCCCCCCCCC[N+](C)(C)C.[Cl-]` [Surfactant (A2-1), lauryl trimethyl ammonium chloride] came in with a pKa of 14. Besides, the “Secretion efficiency (%)” value in data set [1] (setting [3]) is listed as 52%.

On to “sodium (2-dodecylamino)ethanesulfonate [Surfactant (A3-1)]”, for which the “Secretion efficiency (%)” value in data set [1] (setting [3]) is recorded as 60%.

For “sodium polyoxyethylene (average 3 mol adduct) lauryl ether acetate [Surfactant (A1-2)]”, the “Secretion efficiency (%)” value in data set [1] (setting [3]) was determined as 58%. Also, in data set [2], the “pKa of the ionizable group in water at 25° C.” value was found to be 3.6. Regarding `CCCCCCCCCCCC[N+](C)(C)CC(=O)[O-]` [Surfactant (A3-5), betaine lauryldimethylaminoacetate], the “Secretion efficiency (%)” value in data set [1] (setting [3]) came out at 56%. As to `CCCCCCCCCCCCCCCCOP(=O)([O-])OCC[N+](C)(C)C` [Surfactant (A3-4), miltefosine, reference compound], the “Secretion efficiency (%)” value in data set [1] (setting [3]) is listed as 59%.
